Values of other authors as cited in patent US12616655B2, “Topical antibiotic containing pharmaceutical composition for bacterial infections and wound healing” (Vishagan Vanangamudi Sulur, priority 2019, dated 2026).
≈ marks a conversion by molar mass, not a printed value. Like-named read-outs stand apart in the source and are kept apart here.

Key:
[1] = tested on: Staphylococcus aureus
[2] = through intact human skin
[3] = at 22° C.

solubility (in alcohol at 20° C.): 500 µg/mL (≈ 999 µM)
solubility (in water at 20° C.): 1000 µg/mL (≈ 2000 µM)
Systemic absorption [2]: minimal
pKa [3]: 5
SMILES: C/C(=C\C(=O)OCCCCCCCCC(=O)O)C[C@@H]1OC[C@H](C[C@@H]2O[C@H]2[C@@H](C)[C@H](C)O)[C@@H](O)[C@H]1O [Mupirocin]
inhibition of protein and RNA synthesis [1]: strongly inhibit
